The nature of experiment [1]: Displacement of [3H]RX821002 from alpha2 adrenergic receptor in human brain prefrontal cortex tissue by liquid scintillation spectrometry. In kind it is tissue-based.
Experiment [2] relates to Rattus norvegicus. The experiment can be described thus: Increase in extracellular noradrenaline levels in Sprague-Dawley rat brain prefrontal cortex at 1 to 100 uM, locally administered by microdialysis by relative to control.
The nature of experiment [3]: Agonist activity at alpha2 adrenergic receptor in human brain prefrontal cortex tissue by [35S]GTPgamma S binding assay. The experiment is classed as functional, tissue-based. A general note: GTPγS resists hydrolysis and so accumulates on activated G proteins.
A short description of experiment [4]: Agonist activity at alpha2 adrenergic receptor in human brain prefrontal cortex tissue by [35S]GTPgamma S binding assay relative to UK-14304. In kind it is functional.
The subject of experiment [5] is Rattus norvegicus. Nature of the experiment: Increase in extracellular noradrenaline levels in Sprague-Dawley rat brain prefrontal cortex at 10 mg/kg, ip systematically administered by microdialysis by relative to control. The note with it: route intraperitoneal. The experiment is classed as functional.

The source of these data is ChEMBL document CHEMBL1150343, “Guanidine and 2-aminoimidazoline aromatic derivatives as alpha2-adrenoceptor antagonists. 2. Exploring alkyl linkers for new antidepressants” (J Med Chem, 2008).

The term pKi denotes the Ki on a negative log10 scale, so that one unit is a factor of ten. The low end stands for a large Ki, the high end for a small Ki. Usually Emax stands for the greatest response seen or fitted, relative to the assay's reference. As usually defined, the EC50 is the midpoint of the concentration-response curve. Low values mean a more potent agent, high ones a less potent agent.

Compound `Cc1ccc(NC(=N)N)cc1.Cl` yielded a pKi in experiment [1] of 6.53.
The same measure, in the same setting: for `CCc1ccc(NC(=N)N)cc1.Cl` the value was 5.55; for `N=C(N)Nc1ccc2c(c1)Cc1ccc(NC(=N)N)cc1C2`, 7.96.
For the compound `COc1ccc(NC(=N)N)cc1`, the pKi in experiment [1] is given as 6.39.
Same read-out and setting: the result for `Cl.c1ccc(Cc2ccc(NC3=NCCN3)cc2)cc1` reads 6.85.
For the compound `c1ccc2c(c1)OCC(C1=NCCN1)O2` (stereo not given) [IDAZOXAN], the Emax with Rattus norvegicus [2] was determined as 235%.
As for `Cl.c1ccc(NC2=NCCN2)cc1`, the pKi in experiment [1] is listed as 6.48.
On the same count and under the same terms, the result for `CCc1ccc(NC2=NCCN2)cc1.Cl` reads 6.68.
As to `c1ccc(Sc2ccc(NC3=NCCN3)cc2)cc1`, the negative logarithm of the Ki (pKi) in experiment [1] is 6.62.
As to `Cc1ccc(NC2=NCCN2)cc1C.Cl`, in experiment [3], the midpoint of the response, the EC50, lay at 62.9 µM. Further, the negative-log Ki (pKi) in experiment [1] is reported as 7.68. The same compound showed an Emax in experiment [4] of 89%.
The compound `CSc1ccc(NC2=NCCN2)cc1` gave a pKi in experiment [1] of 7.07.
The same measure, in the same setting: for `N=C(N)Nc1ccc(Sc2ccccc2)cc1` the value was 6.3; for `CSc1ccc(NC(=N)N)cc1`, 6.4; for `COc1ccc(NC2=NCCN2)cc1`, 7.77.
`c1cc2c(cc1NC1=NCCN1)OCCO2`: the pKi in experiment [1] is 7.85.
`N=C(N)Nc1ccc(Oc2ccccc2)cc1` registered a pKi in experiment [1] of 6.05.
The same measure, in the same setting: the result for `N=C(N)Nc1ccc2c(c1)OCO2` reads 6.4.
In the case of `Cl.c1cc2c(cc1NC1=NCCN1)CCC2`, in experiment [3], the concentration giving a half-maximal response (EC50) came to 4.4 µM. Besides, the pKi in experiment [1] was found to be 8.26. Besides, the maximal effect (Emax) in experiment [4] turned out to be 98%.
In experiment [1], `c1cc2c(cc1NC1=NCCN1)Cc1ccc(NC3=NCCN3)cc1C2` yielded a negative logarithm of the Ki (pKi) of 7.58.
The same measure, in the same setting: the result for `c1ccc(Nc2ccc(NC3=NCCN3)cc2)cc1` reads 6.56; that for `c1ccc(Oc2ccc(NC3=NCCN3)cc2)cc1`, 6.58; that for `Cl.N=C(N)Nc1ccc(Cc2ccccc2)cc1`, 6.38.
For the compound `COC1(C2=NCCN2)COc2ccccc2O1` (stereo not given), the negative logarithm of the Ki (pKi) in experiment [1] came to 9.04. The same compound registered a maximum response (Emax) in the experiment on Rattus norvegicus [2] of 287%.
The compound `c1cc2c(cc1NC1=NCCN1)OCO2` returned a negative-log Ki (pKi) in experiment [1] of 7.33.
Same read-out and setting: the result for `Nc1ccc(NC2=NCCN2)cc1` reads 6.92.
`Cc1ccc(NC2=NCCN2)cc1.Cl`: in experiment [3], a half-maximal effect (EC50) was put at 15.2 µM. The compound also had a pKi in experiment [1] of 7.82. The compound also registered an Emax in experiment [4] of 97%.
In experiment [1], `N=C(N)Nc1ccc(CCc2ccc(NC(=N)N)cc2)cc1` came in with a negative-log Ki (pKi) of 5.88.
As to `c1cc(NC2=NCCN2)ccc1CCc1ccc(NC2=NCCN2)cc1`, the Activity in the experiment with Rattus norvegicus [5] turned out to be 156%. Moreover, the pKi in experiment [1] is 7.02. The compound also had an Emax in the experiment on Rattus norvegicus [2] of 255%.
For `Cl.N=C(N)Nc1ccc2c(c1)CCCC2`, in that order: 373%, 7.11 and 326%.
The compound `N=C(N)Nc1ccc(Nc2ccccc2)cc1` had a negative logarithm of the Ki (pKi) in experiment [1] of 6.83.
Still for that read-out and setting: for `Cl.N=C(N)Nc1ccccc1` the value was 6.19; for `N=C(N)Nc1ccc2c(c1)Cc1cc(NC(=N)N)ccc1-2`, 6.12; for `Cl.N=C(N)Nc1ccc2c(c1)CCC2`, 6.51.
Still for that read-out and setting: for `N=C(N)Nc1ccc(N)cc1` the value was 5.58; for `c1cc2c(cc1NC1=NCCN1)Cc1cc(NC3=NCCN3)ccc1-2`, 6.32.
With `Cl.c1cc2c(cc1NC1=NCCN1)CCCC2`, the EC50 in experiment [3] came out at 1.1 µM. Moreover, the negative-log Ki (pKi) in experiment [1] worked out at 7.33. Besides, the Emax in experiment [4] was 100%.
`N=C(N)Nc1ccc2c(c1)OCCO2` registered a pKi in experiment [1] of 8.21.
